Test results reported in the kinase profiling compilation of Christmann-Franck et al. (2016).

Experiments:
Assay in all cases: KINOMEscan competition binding
Conditions in all cases: compound 10.0 µM
ROCK2 (human) = ROCK2 (human) (UniProt O75116)
PIM3 (human) = PIM3 (human) (UniProt Q86V86)
SLK (human) = SLK (human) (UniProt Q9H2G2)
MYLK4 (human) = MYLK4 (human) (UniProt Q86YV6)
STK33 (human) = STK33 (human) (UniProt Q9BYT3)
MAP3K7 (human) = MAP3K7 (human) (UniProt O43318)
CAMKK1 (human) = CAMKK1 (human) (UniProt Q8N5S9)
Chain of CAMKK1 (human) (Q8N5S9 whole entry, looked up): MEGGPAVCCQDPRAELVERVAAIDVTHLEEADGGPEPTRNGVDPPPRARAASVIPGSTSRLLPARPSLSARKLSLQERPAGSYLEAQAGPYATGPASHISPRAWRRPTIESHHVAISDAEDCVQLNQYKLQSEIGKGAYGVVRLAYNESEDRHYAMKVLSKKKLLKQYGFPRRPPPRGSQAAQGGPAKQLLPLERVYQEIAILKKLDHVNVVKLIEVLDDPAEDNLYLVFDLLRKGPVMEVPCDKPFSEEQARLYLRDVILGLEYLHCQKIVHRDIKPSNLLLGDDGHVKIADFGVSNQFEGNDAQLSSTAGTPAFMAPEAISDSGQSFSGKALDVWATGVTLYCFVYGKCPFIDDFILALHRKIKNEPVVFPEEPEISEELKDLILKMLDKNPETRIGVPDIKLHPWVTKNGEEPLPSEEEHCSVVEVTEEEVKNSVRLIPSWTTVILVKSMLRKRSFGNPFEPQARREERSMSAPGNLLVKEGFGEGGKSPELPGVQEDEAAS

MAP3K12 (human) = MAP3K12 (human) (UniProt Q12852)
CAMKK2 (human) = CAMKK2 (human) (UniProt Q96RR4)
TESK1 (human) = TESK1 (human) (UniProt Q15569)
EPHB2 (human) = EPHB2 (human) (UniProt P29323)
DAPK3 (human) = DAPK3 (human) (UniProt O43293)
LIMK1 (human) = LIMK1 (human) (UniProt P53667)
DYRK1B (human) = DYRK1B (human) (UniProt Q9Y463)
Chain of DYRK1B (human) (Q9Y463 whole entry, looked up): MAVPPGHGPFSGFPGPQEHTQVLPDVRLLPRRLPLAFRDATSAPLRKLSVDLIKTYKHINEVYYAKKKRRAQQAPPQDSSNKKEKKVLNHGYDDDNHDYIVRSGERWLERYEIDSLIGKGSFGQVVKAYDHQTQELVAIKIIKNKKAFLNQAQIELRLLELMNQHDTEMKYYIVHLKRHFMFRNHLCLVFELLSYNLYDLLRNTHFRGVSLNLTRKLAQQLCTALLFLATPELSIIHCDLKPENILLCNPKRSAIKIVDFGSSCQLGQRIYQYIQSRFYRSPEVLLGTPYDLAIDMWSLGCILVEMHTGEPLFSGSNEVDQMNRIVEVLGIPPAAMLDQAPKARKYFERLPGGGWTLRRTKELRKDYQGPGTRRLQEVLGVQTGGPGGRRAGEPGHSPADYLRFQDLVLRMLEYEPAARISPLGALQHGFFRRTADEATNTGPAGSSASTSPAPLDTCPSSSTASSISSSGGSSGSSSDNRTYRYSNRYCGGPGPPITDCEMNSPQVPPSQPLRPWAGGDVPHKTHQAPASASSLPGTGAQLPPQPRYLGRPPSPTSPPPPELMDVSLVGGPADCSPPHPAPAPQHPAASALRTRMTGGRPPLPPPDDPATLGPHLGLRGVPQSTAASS

INSR (human) = INSR (human) (UniProt P06213)
MAP3K6 (human) = MAP3K6 (human) (UniProt O95382)
[1] = test system: PIK3CA (human), P42336 [M1043I]
ERBB2 (human) = ERBB2 (human) (UniProt P04626)
CSNK2A2 (human) = CSNK2A2 (human) (UniProt P19784)
Chain of CSNK2A2 (human) (P19784 whole entry, looked up): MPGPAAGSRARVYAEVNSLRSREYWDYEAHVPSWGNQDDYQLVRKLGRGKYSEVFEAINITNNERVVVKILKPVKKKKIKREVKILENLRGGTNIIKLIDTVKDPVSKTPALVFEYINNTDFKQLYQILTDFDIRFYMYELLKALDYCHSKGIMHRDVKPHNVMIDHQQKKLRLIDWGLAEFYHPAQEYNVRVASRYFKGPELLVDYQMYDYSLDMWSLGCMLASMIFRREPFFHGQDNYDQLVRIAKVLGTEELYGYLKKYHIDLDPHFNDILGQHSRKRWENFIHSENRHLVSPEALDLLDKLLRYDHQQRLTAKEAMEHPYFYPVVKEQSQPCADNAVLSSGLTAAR

MET (human) = MET (human) (UniProt P08581)
EPHA6 (human) = EPHA6 (human) (UniProt Q9UF33)
PAK6 (human) = PAK6 (human) (UniProt Q9NQU5)
PI4KB (human) = PI4KB (human) (UniProt Q9UBF8)
MAPK9 (human) = MAPK9 (human) (UniProt P45984)
Chain of MAPK9 (human) (P45984 whole entry, looked up): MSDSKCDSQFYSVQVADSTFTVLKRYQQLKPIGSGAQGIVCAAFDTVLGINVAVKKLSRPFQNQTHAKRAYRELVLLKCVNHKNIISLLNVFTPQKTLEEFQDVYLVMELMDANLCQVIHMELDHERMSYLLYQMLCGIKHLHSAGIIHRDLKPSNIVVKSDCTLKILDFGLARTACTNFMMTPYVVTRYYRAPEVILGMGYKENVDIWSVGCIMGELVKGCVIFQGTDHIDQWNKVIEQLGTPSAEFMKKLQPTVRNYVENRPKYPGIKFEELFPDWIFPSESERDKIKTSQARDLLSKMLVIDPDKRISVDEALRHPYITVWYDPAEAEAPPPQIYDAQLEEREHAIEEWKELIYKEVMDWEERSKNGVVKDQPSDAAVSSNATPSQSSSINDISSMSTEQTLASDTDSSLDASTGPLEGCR

PRKD2 (human) = PRKD2 (human) (UniProt Q9BZL6)
MAP2K1 (human) = MAP2K1 (human) (UniProt Q02750)
Chain of MAP2K1 (human) (Q02750 whole entry, looked up): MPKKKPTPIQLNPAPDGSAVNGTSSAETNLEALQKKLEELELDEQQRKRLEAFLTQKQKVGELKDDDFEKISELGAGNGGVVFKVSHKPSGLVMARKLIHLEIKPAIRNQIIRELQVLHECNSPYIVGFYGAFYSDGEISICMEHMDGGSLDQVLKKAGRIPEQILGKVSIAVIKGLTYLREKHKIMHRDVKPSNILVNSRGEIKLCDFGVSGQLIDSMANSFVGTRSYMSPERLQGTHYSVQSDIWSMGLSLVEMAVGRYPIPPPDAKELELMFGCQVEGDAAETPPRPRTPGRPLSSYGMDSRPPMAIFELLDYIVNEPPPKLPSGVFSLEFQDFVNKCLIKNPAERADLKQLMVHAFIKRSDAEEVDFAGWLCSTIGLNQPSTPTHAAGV

PRKAA1 (human) = PRKAA1 (human) (UniProt Q13131)
[2] = target: JAK3 JH1 catalytic (human) (UniProt P52333)
WEE2 (human) = WEE2 (human) (UniProt P0C1S8)
Chain of WEE2 (human) (P0C1S8 whole entry, looked up): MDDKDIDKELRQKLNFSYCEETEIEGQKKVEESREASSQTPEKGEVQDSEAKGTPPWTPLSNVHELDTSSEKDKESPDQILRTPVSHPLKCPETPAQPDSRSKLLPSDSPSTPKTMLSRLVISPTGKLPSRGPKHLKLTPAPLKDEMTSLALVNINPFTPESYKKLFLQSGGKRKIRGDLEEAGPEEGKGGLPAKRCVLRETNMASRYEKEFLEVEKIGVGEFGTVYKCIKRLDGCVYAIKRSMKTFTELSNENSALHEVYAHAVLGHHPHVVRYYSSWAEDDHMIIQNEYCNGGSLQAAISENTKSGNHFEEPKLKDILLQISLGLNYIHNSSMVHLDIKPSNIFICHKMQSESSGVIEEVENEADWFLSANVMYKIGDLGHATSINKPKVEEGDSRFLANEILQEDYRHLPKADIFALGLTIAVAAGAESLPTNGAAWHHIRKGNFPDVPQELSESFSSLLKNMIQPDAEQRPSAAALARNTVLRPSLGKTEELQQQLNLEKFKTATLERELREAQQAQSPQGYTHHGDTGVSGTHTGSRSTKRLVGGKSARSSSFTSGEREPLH

DCLK1 (human) = DCLK1 (human) (UniProt O15075)
CDK19 (human) = CDK19 (human) (UniProt Q9BWU1)
FGFR3 (human) = FGFR3 (human) (UniProt P22607)
CDK11B (human) = CDK11B (human) (UniProt P21127)
MARK2 (human) = MARK2 (human) (UniProt Q7KZI7)
MINK1 (human) = MINK1 (human) (UniProt Q8N4C8)
AURKB (human) = AURKB (human) (UniProt Q96GD4)
PKMYT1 (human) = PKMYT1 (human) (UniProt Q99640)
Chain of PKMYT1 (human) (Q99640 whole entry, looked up): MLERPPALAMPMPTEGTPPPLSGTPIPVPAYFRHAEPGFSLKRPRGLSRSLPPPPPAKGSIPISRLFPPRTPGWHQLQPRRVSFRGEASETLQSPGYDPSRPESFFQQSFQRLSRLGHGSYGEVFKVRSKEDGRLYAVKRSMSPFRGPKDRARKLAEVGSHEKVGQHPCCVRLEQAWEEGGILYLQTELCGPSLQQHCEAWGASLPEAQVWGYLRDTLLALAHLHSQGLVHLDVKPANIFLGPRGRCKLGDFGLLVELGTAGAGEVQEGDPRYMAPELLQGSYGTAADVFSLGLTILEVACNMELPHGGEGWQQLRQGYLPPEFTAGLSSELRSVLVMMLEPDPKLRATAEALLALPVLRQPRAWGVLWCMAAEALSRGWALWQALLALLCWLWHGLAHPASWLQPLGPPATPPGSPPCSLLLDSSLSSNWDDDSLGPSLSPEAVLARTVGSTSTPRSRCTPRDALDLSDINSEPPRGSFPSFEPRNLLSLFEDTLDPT

CDK13 (human) = CDK13 (human) (UniProt Q14004)
IRAK4 (human) = IRAK4 (human) (UniProt Q9NWZ3)
MAP2K5 (human) = MAP2K5 (human) (UniProt Q13163)

Chain of ROCK2 (human) (O75116 whole entry, looked up): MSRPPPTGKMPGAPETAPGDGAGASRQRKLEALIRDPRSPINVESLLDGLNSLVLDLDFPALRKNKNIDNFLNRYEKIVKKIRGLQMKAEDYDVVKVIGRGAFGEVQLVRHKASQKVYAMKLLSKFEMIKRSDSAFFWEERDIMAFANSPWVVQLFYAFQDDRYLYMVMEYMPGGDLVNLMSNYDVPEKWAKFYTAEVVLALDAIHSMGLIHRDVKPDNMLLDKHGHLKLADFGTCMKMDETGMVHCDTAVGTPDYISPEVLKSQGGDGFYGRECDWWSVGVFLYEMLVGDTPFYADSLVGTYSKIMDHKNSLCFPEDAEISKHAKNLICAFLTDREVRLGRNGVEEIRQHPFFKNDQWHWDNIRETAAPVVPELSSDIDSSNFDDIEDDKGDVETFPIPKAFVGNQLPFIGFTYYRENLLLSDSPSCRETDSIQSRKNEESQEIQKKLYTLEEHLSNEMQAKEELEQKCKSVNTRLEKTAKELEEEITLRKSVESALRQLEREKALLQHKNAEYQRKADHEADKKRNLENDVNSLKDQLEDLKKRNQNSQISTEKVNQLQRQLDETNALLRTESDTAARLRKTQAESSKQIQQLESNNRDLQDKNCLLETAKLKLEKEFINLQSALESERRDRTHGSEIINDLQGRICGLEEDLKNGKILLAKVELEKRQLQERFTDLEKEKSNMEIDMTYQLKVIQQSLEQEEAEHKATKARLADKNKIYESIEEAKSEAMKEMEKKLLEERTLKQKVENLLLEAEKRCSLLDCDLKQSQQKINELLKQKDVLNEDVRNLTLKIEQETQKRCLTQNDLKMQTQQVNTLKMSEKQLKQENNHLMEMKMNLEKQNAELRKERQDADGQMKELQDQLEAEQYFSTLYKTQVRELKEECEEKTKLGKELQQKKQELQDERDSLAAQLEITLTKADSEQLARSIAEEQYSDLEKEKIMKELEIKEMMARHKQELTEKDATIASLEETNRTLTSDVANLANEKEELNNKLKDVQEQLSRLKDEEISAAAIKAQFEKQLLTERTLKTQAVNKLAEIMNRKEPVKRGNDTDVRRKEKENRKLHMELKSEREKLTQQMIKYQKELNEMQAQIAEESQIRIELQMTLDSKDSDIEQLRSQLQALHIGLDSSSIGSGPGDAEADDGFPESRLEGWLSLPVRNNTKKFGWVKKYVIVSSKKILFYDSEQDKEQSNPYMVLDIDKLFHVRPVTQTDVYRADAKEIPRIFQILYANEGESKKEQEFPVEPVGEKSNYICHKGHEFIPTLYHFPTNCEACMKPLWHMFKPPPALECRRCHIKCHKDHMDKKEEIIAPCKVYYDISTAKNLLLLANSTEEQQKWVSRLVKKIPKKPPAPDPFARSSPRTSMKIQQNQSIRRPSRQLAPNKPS

Row | SMILES | kinase still bound, per cent of control (ROCK2 (human)) [%] | kinase still bound, per cent of control (PIM3 (human)) [%] | kinase still bound, per cent of control (MYLK4 (human)) [%] | kinase still bound, per cent of control (STK33 (human)) [%] | kinase still bound, per cent of control (MAP3K7 (human)) [%] | kinase still bound, per cent of control (CAMKK1 (human)) [%] | kinase still bound, per cent of control (MAP3K12 (human)) [%] | kinase still bound, per cent of control (CAMKK2 (human)) [%] | kinase still bound, per cent of control (TESK1 (human)) [%] | kinase still bound, per cent of control (DAPK3 (human)) [%] | kinase still bound, per cent of control (DYRK1B (human)) [%] | kinase still bound, per cent of control (INSR (human)) [%] | kinase still bound, per cent of control (MAP3K6 (human)) [%] | kinase still bound, per cent of control [1] [%] | kinase still bound, per cent of control (ERBB2 (human)) [%] | kinase still bound, per cent of control (CSNK2A2 (human)) [%] | kinase still bound, per cent of control (MET (human)) [%] | kinase still bound, per cent of control (EPHA6 (human)) [%] | kinase still bound, per cent of control (PAK6 (human)) [%] | kinase still bound, per cent of control (MAPK9 (human)) [%] | other results
1 | Cc1cn(-c2cc(C(=O)Nc3ccc(C)c(NC(=O)c4ccno4)c3)cc(C(F)(F)F)c2)cn1 | 100 | 100 | 100 | 100 | 100 | 100 | 100 | 100 | 100 | 100 | 100 | 100 | 100 | 100 | 100 | 100 | 100 | 100 | 100 | 100 | kinase still bound, per cent of control (SLK (human)): 100%; kinase still bound, per cent of control (EPHB2 (human)): 9%; kinase still bound, per cent of control (LIMK1 (human)): 100%; kinase still bound, per cent of control (PI4KB (human)): 100%; kinase still bound, per cent of control (PRKD2 (human)): 100%; kinase still bound, per cent of control (MAP2K1 (human)): 100%; kinase still bound, per cent of control (PRKAA1 (human)): 100%; kinase still bound, per cent of control [2]: 100%; kinase still bound, per cent of control (WEE2 (human)): 100%; kinase still bound, per cent of control (DCLK1 (human)): 100%; kinase still bound, per cent of control (CDK19 (human)): 100%; kinase still bound, per cent of control (FGFR3 (human)): 100%; kinase still bound, per cent of control (CDK11B (human)): 100%; kinase still bound, per cent of control (MARK2 (human)): 100%; kinase still bound, per cent of control (MINK1 (human)): 100%; kinase still bound, per cent of control (AURKB (human)): 100%; kinase still bound, per cent of control (PKMYT1 (human)): 100%
2 | CCOc1cc(N2CCC(O)CC2)ccc1Nc1ncc2c(n1)N(C)c1ccccc1C(=O)N2C | 100 | 100 | 100 | 100 | 100 | 100 | 100 | 100 | 100 | 100 | 100 | 100 | 100 | 100 | 100 | 100 | 100 | 100 | 100 | 100 | kinase still bound, per cent of control (SLK (human)): 100%; kinase still bound, per cent of control (EPHB2 (human)): 100%; kinase still bound, per cent of control (LIMK1 (human)): 100%; kinase still bound, per cent of control (PI4KB (human)): 100%; kinase still bound, per cent of control (PRKD2 (human)): 100%; kinase still bound, per cent of control (MAP2K1 (human)): 100%; kinase still bound, per cent of control (PRKAA1 (human)): 100%; kinase still bound, per cent of control [2]: 100%; kinase still bound, per cent of control (WEE2 (human)): 100%; kinase still bound, per cent of control (DCLK1 (human)): 0.9%; kinase still bound, per cent of control (CDK19 (human)): 100%; kinase still bound, per cent of control (FGFR3 (human)): 100%; kinase still bound, per cent of control (CDK11B (human)): 100%; kinase still bound, per cent of control (MARK2 (human)): 100%; kinase still bound, per cent of control (MINK1 (human)): 100%; kinase still bound, per cent of control (AURKB (human)): 100%; kinase still bound, per cent of control (PKMYT1 (human)): 100%
3 | CC(=O)c1c(C)c2cnc(Nc3ccc(N4CCNCC4)cn3)nc2n(C2CCCC2)c1=O | 36 | 82 | 35 | 24 | 7.9 | 20 | 47 | 20 | 99 | 0.45 | 3.2 | 67 | 69 | 68 | 79 | 0.65 | 36 | 96 | 66 | 0.5 | kinase still bound, per cent of control (CDK13 (human)): 47%; kinase still bound, per cent of control (IRAK4 (human)): 39%; kinase still bound, per cent of control (MAP2K5 (human)): 62%; kinase still bound, per cent of control (PRKD2 (human)): 0.7%; kinase still bound, per cent of control (MAP2K1 (human)): 20%; kinase still bound, per cent of control (PRKAA1 (human)): 22%; kinase still bound, per cent of control [2]: 8.5%; kinase still bound, per cent of control (WEE2 (human)): 75%; kinase still bound, per cent of control (DCLK1 (human)): 2.9%; kinase still bound, per cent of control (CDK19 (human)): 100%; kinase still bound, per cent of control (CDK11B (human)): 93%; kinase still bound, per cent of control (MARK2 (human)): 28%; kinase still bound, per cent of control (MINK1 (human)): 7.6%; kinase still bound, per cent of control (AURKB (human)): 48%; kinase still bound, per cent of control (PKMYT1 (human)): 77%
